# Literature values, collected in US20240245703A1, “TOPICAL APPLICATION OF AGENTS TO REDUCE SUN SENSITIVITY AND IMPROVE TOPICAL PHOTODYNAMIC THERAPY” (Wright State University, priority 2021, published 2024).
# Test system: aSMase
# Details: 10 micromolar, PC12 cells, incubation time 0.5 h; % of corresponding control values; cited from earlier work
row,SMILES,Residual ASM Activity [%]
1,"Clc1ccccc1CNCC1CCC(CNCc2ccccc2Cl)CC1 (stereo not shown) [AY9944, N-[(2-chlorophenyl)methyl]-1-[4-[[(2-chlorophenyl)methylamino]methyl]cyclohexyl]methanamine]",22.1
2,CN1[C@@H]2CC[C@H]1C[C@@H](OC(c1ccccc1)c1ccccc1)C2 [Benztropine],12.7
3,CCN(CC)CCOc1ccc(C(=C(Cl)c2ccccc2)c2ccccc2)cc1 [Clomiphene],13.0
4,CN(C)CCCN1c2ccccc2CCc2ccc(Cl)cc21 [Clomipramine],21.8
5,CN(C)CCC=C1c2ccccc2C=Cc2ccccc21 [Cyclobenzaprine],26.2
6,CNCCCN1c2ccccc2CCc2ccccc21 [Desipramine],15.6
7,CC(NCCC(c1ccccc1)c1ccccc1)c1ccccc1 (stereo not shown) [Fendiline],25.2
8,CNCCC(Oc1ccc(C(F)(F)F)cc1)c1ccccc1 (stereo not shown) [Fluoxetine],13.0
9,OCCN1CCN(CC/C=C2/c3ccccc3Sc3ccc(C(F)(F)F)cc32)CC1 [Flupenthixol],18.2
10,CNCCCC12CCC(c3ccccc31)c1ccccc12 [Maprotiline],13.5
11,NCCC(Oc1ccc(C(F)(F)F)cc1)c1ccccc1 (stereo not shown) [Norfluoxetine],22.5
12,CNCCC=C1c2ccccc2CCc2ccccc21 [Nortriptyline],13.3
13,Fc1ccc([C@@H]2CCNC[C@H]2COc2ccc3c(c2)OCO3)cc1 [Paroxetine],31.7
14,C1CCC(C(CC2CCCCN2)C2CCCCC2)CC1 (stereo not shown) [Perhexiline],8.5
15,OCCN1CCN(CCCN2c3ccccc3Sc3ccc(Cl)cc32)CC1 [Perphenazine],20.1
16,CCN(CC)C(C)CN1c2ccccc2Sc2ccccc21 (stereo not shown) [Profenamine],29.7
17,CN(C)CCCN1c2ccccc2Sc2ccccc21 [Promazine],33.6
18,CC(CN1c2ccccc2Sc2ccccc21)N(C)C (stereo not shown) [Promethazin],32.2
19,CNCCCC1c2ccccc2C=Cc2ccccc21 [Protriptyline],12.7
20,CN[C@H]1CC[C@@H](c2ccc(Cl)c(Cl)c2)c2ccccc21 [Sertraline],12.3
21,CC(C)(C)c1ccc(C(O)CCCN2CCC(C(O)(c3ccccc3)c3ccccc3)CC2)cc1 (stereo not shown) [Terfenadine],21.8
22,CN(C)CCCN1c2ccccc2Sc2ccc(C(F)(F)F)cc21 [Triflupromazine],29.5
23,CC(CN(C)C)CN1c2ccccc2CCc2ccccc21 (stereo not shown) [Trimipramine],13.8

# Same assay, conditions: 10 micromolar, PC12 cells, incubation time 6 h; % of corresponding control values; cited from earlier work
row,SMILES,Residual ASM Activity [%]
1,CCN(CC)CCCN(c1ccccc1)C1Cc2ccccc2C1 [Aprindine],27.5
2,COc1ccc(CCN2CCC(Nc3nc4ccccc4n3Cc3ccc(F)cc3)CC2)cc1 [Astemizole],14.3
3,COCC(=O)O[C@]1(CCN(C)CCCc2nc3ccccc3[nH]2)CCc2cc(F)ccc2[C@@H]1C(C)C [Mibefradil],20.8
4,OC1(c2ccc(Cl)c(C(F)(F)F)c2)CCN(CCCC(c2ccc(F)cc2)c2ccc(F)cc2)CC1 [Penfluridol],22.0
5,CC/C(=C(\c1ccccc1)c1ccc(OCCN(C)C)cc1)c1ccccc1 [Tamoxifen],4.1
6,CSc1ccc2c(c1)N(CCC1CCCCN1C)c1ccccc1S2 (stereo not shown) [Thioridazin],10.4
7,CN1CCN(CCCN2c3ccccc3Sc3ccc(C(F)(F)F)cc32)CC1 [Trifluoperazine],8.3
8,"c1cc(CN2CCCCC2)cc(OCCCNc2nc3ccccc3s2)c1 [Zolantidine_(SKB41), Zolantidine]",21.6

# Same assay, conditions: 10 micromolar, PC12 cells, incubation time 24 h; % of corresponding control values; cited from earlier work
row,SMILES,Residual ASM Activity [%]
1,CCN(CCCc1ccccc1)CCCc1ccccc1 [Alverine],21.7
2,CCCCc1oc2ccccc2c1C(=O)c1cc(I)c(OCCN(CC)CC)c(I)c1 [Amiodarone],14.5
3,CC(C)COCC(CN(Cc1ccccc1)c1ccccc1)N1CCCC1 (stereo not shown) [Bepridil],27.1
4,OC(CCN1CCCCC1)(c1ccccc1)C1CC2C=CC1C2 (stereo not shown) [Biperidene],26.2
5,CCN(CC)CCNC(C(=O)OCCC(C)C)c1ccccc1 (stereo not shown) [Camylofin],21.7
6,COc1ccccc1OCCNCC(O)COc1cccc2[nH]c3ccccc3c12 (stereo not shown) [Carvedilol],22.4
7,Clc1ccc(C(OCCN2CCCCC2)c2ccccc2)cc1 (stereo not shown) [Cloperastine],26.7
8,C[C@H]1[C@H]2CC[C@H]3[C@@H]4CC=C5C[C@@H](N(C)C)CC[C@]5(C)[C@H]4CC[C@]23CN1C [Conessine],20.8
9,CCN(CC)CCOC(=O)C(c1ccccc1)C1CCCCC1 (stereo not shown) [Drofenine],20.8
10,CC[C@H]1CN2CCc3cc(OC)c(OC)cc3[C@@H]2C[C@@H]1C[C@H]1NCCc2cc(OC)c(OC)cc21 [Emetine],0.4
11,CN(CCCN1c2ccccc2CCc2ccccc21)CC(=O)c1ccc(Cl)cc1 [Lofepramine],19.2
12,CN(C)C(=O)C(CCN1CCC(O)(c2ccc(Cl)cc2)CC1)(c1ccccc1)c1ccccc1 [Loperamide],24.4
13,CCN(CCCCOC(=O)c1ccc(OC)c(OC)c1)C(C)Cc1ccc(OC)cc1 (stereo not shown) [Mebeverine],31.8
14,CN1CCC(=C2c3ccccc3Sc3ccccc32)CC1 [Pimethixene],16.5
15,C[C@H]1CC[C@]2(NC1)O[C@H]1C[C@H]3[C@@H]4CC[C@H]5C[C@@H](O)CC[C@]5(C)[C@H]4CC[C@]3(C)[C@H]1[C@@H]2C [Tomatidine],15.8

# Same assay, conditions: 10 micromolar, PC12 cells, incubation time 48 h; % of corresponding control values; cited from earlier work
row,SMILES,Residual ASM Activity [%]
1,CN(Cc1cc(Br)cc(Br)c1N)C1CCCCC1 [Bromhexine],102.8
2,CC(C)/N=c1\cc2n(-c3ccc(Cl)cc3)c3ccccc3nc-2cc1Nc1ccc(Cl)cc1 [Clofazimine],23.7
3,Fc1ccc(C(c2ccc(F)cc2)N2CCN(C/C=C/c3ccccc3)CC2)cc1 [Flunarizine],32.7

# Same assay, conditions: from Kornhuber et al. 2008; cited from earlier work
row,SMILES,residual aSMase activity after treatment [%]
1,O=C(CCCN1CCC(O)(c2ccc(Cl)cc2)CC1)c1ccc(F)cc1 [haloperidol],86.1

# Test system: not given
# Details: hairless mice, effect of propylene glycol; cited from earlier work
row,SMILES,absorption with propylene glycol
1,CNCCCN1c2ccccc2CCc2ccccc21 [Desipramine],enhances absorption
2,CNCCC=C1c2ccccc2CCc2ccccc21 [Nortriptyline],enhances absorption
